Earlier results on one molecule are cited in patent US20040213859A1, “Organic nutrient for hair loss treatment” (priority 1999, published 2004).

Data set [1] has as its target T1, type II 5-alpha-reductase (Homo sapiens, UniProt P31213).
T1 construct: host or cells: scalp (in vivo, treated individuals)
T1 sequence (P31213 1-254): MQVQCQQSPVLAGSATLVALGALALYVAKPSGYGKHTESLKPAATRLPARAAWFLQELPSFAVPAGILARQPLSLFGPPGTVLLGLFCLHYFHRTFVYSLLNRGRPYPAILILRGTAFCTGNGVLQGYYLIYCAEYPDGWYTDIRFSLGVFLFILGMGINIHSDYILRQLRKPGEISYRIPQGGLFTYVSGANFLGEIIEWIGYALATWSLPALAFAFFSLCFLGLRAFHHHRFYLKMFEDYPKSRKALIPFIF
As to conditions: by inhibiting conversion of testosterone to DHT.

In a further data set the test system is adrogenetic alopecia. Particulars: oral administration.

Regarding `CC(C)(C)NC(=O)[C@H]1CC[C@H]2[C@@H]3CC[C@H]4NC(=O)C=C[C@]4(C)[C@H]3CC[C@]12C` [Finisteride], the “scalp DHT (dihydrotestosterone)” value in data set [1] is recorded as “effective in decreasing scalp DHT”. The “hair loss, hair growth and appearance of hair” value in the data set with adrogenetic alopecia was “slowed hair loss, increased hair growth and improved the appearance of hair”.
